Active and inactive are the calls of the source. No cut-off for these calls is given here.
Key:
[1] = tested on: PC-12; assay: Cytotoxicity against rat PC12 cells assessed as inhibition of cell viability at 30 uM incubated for 24 hrs by MTT assay; format: functional, cell-based
[2] = tested on: PC-12; assay: Neuroprotective activity against H2O2-induced cell injury in rat PC12 cells assessed as cell viability at 2 uM incubated for 24 hrs by MTT assay; format: functional, cell-based
[3] = tested on: PC-12; assay: Cytoprotective activity against H2O2-induced cell injury in rat PC12 cells at 2.5 uM incubated with compound for 24 hrs followed by H2O2 addition and measured up to 96 hrs by Real-time cell analysis; format: functional, cell-based; details: time <= 120.0 hrs
[4] = tested on: PC-12; assay: Inhibition of apoptosis in H2O2-induced rat PC12 cells assessed as viable cells at 1.25 uM incubated with compound for 24 hrs followed by H2O2 addition and measured after 24 hrs by Annexin V-FITC/PI staining based flow cytometry analysis (reference value: 91.4%); format: functional; details: read-out: Activity
[5] = tested on: PC-12; assay: Inhibition of apoptosis in H2O2-induced rat PC12 cells assessed as early apoptotic cells at 1.25 uM incubated with compound for 24 hrs followed by H2O2 addition and measured after 24 hrs by Annexin V-FITC/PI staining based flow cytometry analysis (reference value: 1.09%); format: functional; parameters: scale not given: the % may be the effect or the level left
[6] = tested on: PC-12; assay: Inhibition of apoptosis in H2O2-induced rat PC12 cells assessed as late apoptotic cells at 1.25 uM incubated with compound for 24 hrs followed by H2O2 addition and measured after 24 hrs by Annexin V-FITC/PI staining based flow cytometry analysis (reference value: 2.64%); format: functional; parameters: scale not given: the % may be the effect or the level left
[7] = tested on: PC-12; assay: Inhibition of apoptosis in H2O2-induced rat PC12 cells assessed as necrotic cells at 1.25 uM incubated with compound for 24 hrs followed by H2O2 addition and measured after 24 hrs by Annexin V-FITC/PI staining based flow cytometry analysis (reference value: 4.05%); format: functional; parameters: scale not given: the % may be the effect or the level left
[8] = tested on: PC-12; assay: Inhibition of apoptosis in H2O2-induced rat PC12 cells assessed as viable cells at 2.5 uM incubated with compound for 24 hrs followed by H2O2 addition and measured after 24 hrs by Annexin V-FITC/PI staining based flow cytometry analysis (reference value: 91.4%); format: functional; details: read-out: Activity
[9] = tested on: PC-12; assay: Inhibition of apoptosis in H2O2-induced rat PC12 cells assessed as early apoptotic cells at 2.5 uM incubated with compound for 24 hrs followed by H2O2 addition and measured after 24 hrs by Annexin V-FITC/PI staining based flow cytometry analysis (reference value: 1.09%); format: functional; parameters: scale not given: the % may be the effect or the level left
[10] = tested on: PC-12; assay: Inhibition of apoptosis in H2O2-induced rat PC12 cells assessed as late apoptotic cells at 2.5 uM incubated with compound for 24 hrs followed by H2O2 addition and measured after 24 hrs by Annexin V-FITC/PI staining based flow cytometry analysis (reference value: 2.64%); format: functional; parameters: scale not given: the % may be the effect or the level left
[11] = tested on: PC-12; assay: Inhibition of apoptosis in H2O2-induced rat PC12 cells assessed as necrotic cells at 2.5 uM incubated with compound for 24 hrs followed by H2O2 addition and measured after 24 hrs by Annexin V-FITC/PI staining based flow cytometry analysis (reference value: 4.05%); format: functional; parameters: scale not given: the % may be the effect or the level left
[12] = tested on: PC-12; assay: Inhibition of apoptosis in H2O2-induced rat PC12 cells assessed as viable cells at 5 uM incubated with compound for 24 hrs followed by H2O2 addition and measured after 24 hrs by Annexin V-FITC/PI staining based flow cytometry analysis (reference value: 91.4%); format: functional; details: read-out: Activity
[13] = tested on: PC-12; assay: Inhibition of apoptosis in H2O2-induced rat PC12 cells assessed as early apoptotic cells at 5 uM incubated with compound for 24 hrs followed by H2O2 addition and measured after 24 hrs by Annexin V-FITC/PI staining based flow cytometry analysis (reference value: 1.09%); format: functional; parameters: scale not given: the % may be the effect or the level left
[14] = tested on: PC-12; assay: Inhibition of apoptosis in H2O2-induced rat PC12 cells assessed as late apoptotic cells at 5 uM incubated with compound for 24 hrs followed by H2O2 addition and measured after 24 hrs by Annexin V-FITC/PI staining based flow cytometry analysis (reference value: 2.64%); format: functional; parameters: scale not given: the % may be the effect or the level left
[15] = tested on: PC-12; assay: Inhibition of apoptosis in H2O2-induced rat PC12 cells assessed as necrotic cells at 5 uM incubated with compound for 24 hrs followed by H2O2 addition and measured after 24 hrs by Annexin V-FITC/PI staining based flow cytometry analysis (reference value: 4.05%); format: functional; parameters: scale not given: the % may be the effect or the level left
[16] = tested on: PC-12; assay: Anti-apoptotic activity in H2O2-induced rat PC12 cells assessed as increase in PARP protein expression at 1.25 to 5 uM by Western blot analysis; format: functional, cell-based; details: dose 1.25-5 µM
[17] = tested on: Danio rerio; assay: Anti-alzheimer activity in scopolamine induced zebrafish alzheimer disease model assessed as increase in total swimming distance at 1.25 to 5 uM administered for 6 days post fertilization; format: functional, organism-based; details: dose 1.25-5 µM, time 6.0 day
[18] = tested on: PC-12; assay: Neuroprotective activity against H2O2-induced cell injury in rat PC12 cells assessed as cell viability incubated for 24 hrs by MTT assay; format: functional, cell-based; details: dose 0.37-30 µM
[19] = tested on: SH-SY5Y; assay: Cytotoxicity against human SH-SY5Y cells assessed as inhibition of cell viability at 100 uM incubated for 24 hrs by MTT assay; format: functional, cell-based
[20] = Drug uptake in mitochondria of rat PC12 cells at 8 uM incubated for 8.5 hrs by HPLC analysis; format: ADME; details: pc12, 8.5 h
[21] = tested on: PC-12; assay: (§1) Neuroprotective activity in H2O2-induced rat PC12 cells assessed as reversal of mitochondrial membrane potential reduction by measuring red fluorescence at 1.25 uM incubated with compound for 24 hrs followed by H2O2 addition and measured after 24 hrs by JC-1 based fluorescence microscopic analysis (reference value: 21.62 a.u.); format: functional
[22] = tested on: PC-12; assay: as §1, with “2.5” for “1.25”; format: functional
[23] = tested on: PC-12; assay: as §1, with “5” for “1.25”; format: functional
[24] = tested on: PC-12; assay: as §1, with “measuring green” for “measuring red”, “at 1.5” for “at 1.25”, “value: 4.90” for “value: 21.62”; format: functional
[25] = tested on: PC-12; assay: as §1, with “measuring green” for “measuring red”, “at 2.5” for “at 1.25”, “value: 4.90” for “value: 21.62”; format: functional
[26] = tested on: PC-12; assay: as §1, with “measuring green” for “measuring red”, “at 5” for “at 1.25”, “value: 4.90” for “value: 21.62”; format: functional
[27] = tested on: PC-12; assay: (§2) Neuroprotective activity in H2O2-induced rat PC12 cells assessed as reversal of mitochondrial membrane potential reduction by measuring red fluorescence fold change at 1.5 uM incubated with compound for 24 hrs followed by H2O2 addition and measured after 24 hrs by JC-1 based fluorescence microscopic analysis (reference value: 1.00); format: functional
[28] = tested on: PC-12; assay: as §2, with “2.5” for “1.5”; format: functional
[29] = tested on: PC-12; assay: as §2, with “5” for “1.5”; format: functional
[30] = tested on: PC-12; assay: as §2, with “measuring green” for “measuring red”; format: functional
[31] = tested on: PC-12; assay: as §2, with “measuring green” for “measuring red”, “at 2.5” for “at 1.5”; format: functional
[32] = tested on: PC-12; assay: as §2, with “measuring green” for “measuring red”, “at 5” for “at 1.5”; format: functional
[33] = tested on: PC-12; assay: Induction of autophagy in H2O2-induced rat PC12 cells assessed as downregulation of P62 expression by Western blot analysis; format: functional, cell-based; details: dose 1.25-5 µM
[34] = tested on: PC-12; assay: Induction of autophagy in H2O2-induced rat PC12 cells assessed as upregulation of LC3-II/I ratio by Western blot analysis; format: functional, cell-based; details: dose 1.25-5 µM
[35] = tested on: PC-12; assay: Induction of autophagy in rat PC12 cells assessed as reduction of LC3-II/I ratio in presence of 3-TYP by Western blot analysis; format: functional, cell-based
[36] = tested on: PC-12; assay: Neuroprotective activity in H2O2-induced rat PC12 cells assessed as reduction in cell viability in presence of 3-TYP at 10 uM; format: functional, cell-based
[37] = tested on: PC-12; assay: Neuroprotective activity in H2O2-induced rat PC12 cells assessed as upregulation of SIRT-3 level at 1.25 to 5 uM by Western blot analysis; format: functional, cell-based; details: dose 1.25-5 µM
[38] = tested on: PC-12; assay: Neuroprotective activity in H2O2-induced rat PC12 cells assessed as upregulation of Mfn-1 expression at 1.25 to 5 uM by Western blot analysis; format: functional, cell-based; details: dose 1.25-5 µM
[39] = tested on: PC-12; assay: Neuroprotective activity in H2O2-induced rat PC12 cells assessed as upregulation of p-AMPK/AMPK ratio at 1.25 to 5 uM by Western blot analysis; format: functional, cell-based; details: dose 1.25-5 µM
[40] = tested on: PC-12; assay: Neuroprotective activity in H2O2-induced rat PC12 cells assessed as suppression of Mfn-1 expression in presence of 3-TYP by Western blot analysis; format: functional, cell-based
[41] = Drug uptake in cytoplasm of rat PC12 cells at 8 uM incubated for 8.5 hrs by HPLC analysis; format: ADME, subcellular; details: pc12, 8.5 h
[42] = Drug uptake in rat PC12 cells at 8 uM incubated for 8.5 hrs by HPLC analysis; format: ADME, cell-based; details: pc-12, 8.5 h

SMILES: C=CCc1ccc(OCCCNC(=O)[C@H](CCCNC(=O)OCc2ccccc2)NC(=O)[C@@H](NC(=O)[C@@H]2CCCN2C(=O)[C@@H](Cc2ccccc2)NC(=O)[C@H](CC(C)C)NC(=O)OC(C)(C)C)C(C)C)c(-c2ccc(O)c(CC=C)c2)c1
- Activity [1]: inactive
- Activity [2]: Active
- Activity [3]: Active
- viability at 1.25 µM [4]: 76.6%
- Activity [5]: 17.2%
- Activity [6]: 4.86%
- Activity [7]: 1.4%
- viability at 2.5 µM [8]: 83.9%
- Activity [9]: 11.6%
- Activity [10]: 2.87%
- Activity [11]: 1.66%
- viability at 5 µM [12]: 86.8%
- Activity [13]: 8.97%
- Activity [14]: 2.69%
- Activity [15]: 1.58%
- Activity [16]: Active
- Activity [17]: Active
- Activity [18]: Dose-dependent-effect

SMILES: C=CCc1ccc(O)c(-c2ccc(OCCCNC(=O)[C@H](CCCNC(=O)OCc3ccccc3)NC(=O)[C@@H](NC(=O)[C@@H]3CCCN3C(=O)[C@@H](Cc3ccccc3)NC(=O)[C@H](CC(C)C)NC(=O)OC(C)(C)C)C(C)C)c(CC=C)c2)c1
- Activity [19]: inactive
- Activity [2]: Active
- Drug uptake [20]: Active
- Activity [21]: 3.18 a.u.
- Activity [22]: 11.01 a.u.
- Activity [23]: 15.68 a.u.
- Activity [24]: 3.7 a.u.
- Activity [25]: 7.17 a.u.
- Activity [26]: 4.76 a.u.
- fold change (FC) [27]: 0.14
- fold change (FC) [28]: 0.52
- fold change (FC) [29]: 0.74
- fold change (FC) [30]: 1.4
- fold change (FC) [31]: 2.91
- fold change (FC) [32]: 1.44
- Activity [33]: Dose-dependent-effect
- Activity [34]: Dose-dependent-effect
- Activity [35]: Active
- Activity [36]: Active
- Activity [37]: Active
- Activity [38]: Active
- Activity [39]: Active
- Activity [40]: Active
- Activity [18]: Dose-dependent-effect
- Drug uptake [41]: Active
- Drug uptake [42]: Active

SMILES: C=CCc1ccc(OC)c(-c2ccc(OCCCNC(=O)[C@H](CCCNC(=O)OCc3ccccc3)NC(=O)[C@@H](NC(=O)[C@@H]3CCCN3C(=O)[C@@H](Cc3ccccc3)NC(=O)[C@H](CC(C)C)NC(=O)OC(C)(C)C)C(C)C)c(CC=C)c2)c1
- Activity [1]: inactive
